Paper PMC3893826 (Journal of medicinal chemistry, 2010)

Columns and labels:
mTOR = mTOR (Mus musculus, UniProt Q9JLN9); format: cell-based
Human mTORC1 complex = Human mTORC1 complex (Homo sapiens, UniProt P42345); experiment: In vitro mTORC1 kinase assay; format: biochemical

EC50 (mTOR) [nM]	improved mTOR cellular potency compared to screening hit compound 1 (mTOR; relative to compound 1) [fold]	improvement in cellular potency, 7 versus 8 (mTOR; relative to compound 8) [fold]	Compound	IC50 (Human mTORC1 complex) [nM]	IC50 (mTOR) [nM]
3	1000	13	CC(=O)N1CCN(c2ccc(-n3c(=O)ccc4cnc5ccc(-c6cnc7ccccc7c6)cc5c43)cc2C(F)(F)F)CC1 [Compound 7, 1-(4-(4-acetylpiperazin-1-yl)-3-(trifluoromethyl)phenyl)-9-(quinolin-3-yl)benzo[h][1,6]naphthyridin-2(1H)-one]	–	–
–	–	–	COCCC(=O)N1CCN(c2ccc(Nc3ccnc4ccc(-c5cnc6ccccc6c5)cc34)cc2C(F)(F)F)CC1 [Compound 16]	82.6	40
